In patent publication US20220334101A1, “MODULATING EXTRACELLULAR MATRIX MOVEMENT” (Helmholtz Zentrum Muenchen - Deutsches Forschungszentrum …, priority 2019, published 2022):
“Also recorded” adds a separate entry of the source. Where a SMILES comes first, the peptide text is derived from it.

Assays:
liver tissue = experiment: In vivo effects on ECM movement in the presence of modulators (FIG. 20); conditions: FIG. 20, modulator administered after injury
Protocol: An injury within liver tissue was generated, a potential modulator was administered and ECM movement was monitored.

liver = experiment: ECM (matrix) movement into liver wounds after electroporation injury, NHS-FITC matrix labelling; type: in vivo, mouse
[1] = tested on: pleural fluid matrix movement into lungs; experiment: Bleomycin-induced lung fibrosis model with pleural matrix fate tracing; type: in vivo, mouse
Protocol: The inventors generated a labelling solution by mixing 5 μl NHS-ester (25 mg/ml) with 5 μl of 100 mM pH 9.0 sodium bicarbonate buffer, combining with 40 μl PBS to a total volume of 50 μl. The labelling solution was applied intra pleural under isoflurane anaesthesia by using a 30G cannula. The oropharyngeal administration of bleomycin for the induction of pulmonary fibrosis was carried out in an antagonistic anesthesia in C57BL/6J mice of both sexes (6-8 weeks age). After the toe-pinch reflex was absent, the mouse was placed on the incisors of the upper jaw and thus kept in an upright position. The tongue was carefully fixed and held to the side with tweezers while the nose of the animal is covered with tweezers. By keeping the nose closed, the mouse was forced to breathe through the mouth. With the help of a pipette, bleomycin was dissolved in a dosage of 2 units/kg KGW in 80 μl PBS carefully into the throat. As soon as the animal has inhaled the solution, it was tansferred to a Hot plate (duration approx. 30 to 60 seconds). After antagonization animals were housed for 14 days. Nintedanib was added 1 hour before bleomycin installation and every other day intra peritoneal 10 μM. To directly answer if Nintedanib's anti-fibrotic actions are mediated through its effects on fluid matrix movements, the Inventors labeled fluid matrix reservoirs on lung surfaces as before, induced lung inflammation and fibrosis with Bleomycin, and followed these mice with daily injections of Nintedanib (FIG. 44B). […] Both lung alveoli and major blood vessels lacked accretions of labeled fibers.

peritoneum = experiment: ECM (matrix) movement into peritoneal wounds after laparotomy injury, NHS-FITC matrix labelling; type: in vivo, mouse; conditions: inhibitors 10 μM i.p. 2 hours before surgery, organs harvested after 24 h, FITC in wound lysates
fascia fibroblasts [2] = experiment: Fascia invasion assay (ex vivo fascia 3D Matrigel culture); type: cell-based, mouse
Protocol: In order to observe the dynamic changes of fascia fibroblasts, the inventors isolated dorsal skin from P4 to P6 neonates of En1^Cre; R26^mTmG mouse lines. Cre positive neonates from this double transgenic mouse line were detected by green fluorescent signal in dorsal skin with a Leica M205 FA stereo microscope. Matrigel was prepared by diluting the stock aliquots with DMEM/F12 medium to a concentration of 6 mg/ml. Then 150 μl prepared gel was added in the center of a 35 mm cell culture dish (Ibidi). 4 mm biopsies were made from the dorsal skin and fascia tissues were then isolated from the dorsal skin tissues. Isolated fascia tissues were then embedded into the gel and were allowed to be solidified for one hour at 37° C. Then the tissue-gel system was maintained in DMEM/F12 medium (Life Technologies) supplemented with 10% FBS (Life Technologies), 1% non-essential amino acid (Thermo Fisher), 1% Glutamax (Thermo Fisher), 1% penicillin and streptomycin (Thermo Fisher) in a 37° C. incubator supplied with 95% O2 and 5% CO2. Medium was changed every other day until day 4 when tissues were collected and fixed. For fixation with Matrigel system, tissues were fixed in 2% paraformaldehyde (VWR) with 0.1% glutaraldehyde (Sigma) for 1 hour and then washed three times with phosphate buffered saline (PBS, Life Technologies) and stored in PBS at 4° C.
Fascia tissues were recorded everyday by a brightfield microscope to check the invasion and contraction state of the tissues. The invasion index was calculated with the following formula: Invasion index=(SD4−SD0)/SD0
SD4 and SD0 represent tissue size (including the migrated area) on Day 4 and Day 0, respectively. The contraction index was calculated with the following formula: Contraction index=(TD0−TD4)/TD0
TD4 and TD0 represent original tissue size (excluding the migrated area) on Day 4 and Day 0 respectively.
The Inventors isolated fascia from back-skin of En1^Cre; R26^mTmG double-transgenic mice, separately incubated whole fascia explants with 26 small molecules, and measured the invasion index (Si)=(SD4−SD0)/SD0 (see Methods) as a proxy measure of sprouting and reticulation.

[3] = tested on: scars of splinted back-skin wounds; experiment: In vivo splinted wound model (scar formation); set-up: species or system mouse; conditions: 75 μl per wound of 250 μM intra-dermally, day 21, trichrome staining
[4] = tested on: fascia matrix mobilization into wounds; experiment: Fascia labelling study: fascia mobilization into excisional back-skin wounds in live mice; type: in vivo, mouse; conditions: 75 μl of 250 μM three times a week, wounds collected Day 7
Protocol: For the fascia labelling study, 2 mg/ml NHS-fluorescein dye was subcutaneously injected into dorsal skin of wildtype mice at 4 days and 2 days prior to the surgery. After labelling, excisional wounds were made in mouse back-skin and treated with 75 μl saline diluted chemical solutions with a final concentration of 250 μM three times a week from the surgery day onwards. Scar samples were collected on D7.
Having discovered sprouting and reticulations are altered by the compounds, the Inventors went on to check how these effect fascia mobilization in physiologic wounds in live animals. First, the Inventors labelled the subcutaneous fascia layer with a FITC-NHS ester dye in animals, then made full thickness excisional wounds on the backs of fascia-labelled mice, and followed wound healing under the presence of a […] injection regimen using the above 3 separate compounds. Skin wounds were collected at Day 7 after wounding to determine the extent of fascia mobilization and also at 21 days post-injury to determine final wound size and scar severity. In DMSO control groups, the fascia matrix jelly was mobilized into the wound from all sides of the wound, and wounds at 7 days were completely clogged with large patches of labelled matrix jelly.

fascia fibroblasts [5] = experiment: 3D staining of fascia tissue for αSMA, Ki67 and caspase 3; type: cell-based, mouse; conditions: fascia tissue in Matrigel
Protocol: In order to characterize the properties of fascia samples cultured in Matrigel, the Inventors fixed the whole gel (with fascia tissue embedded inside) and conducted 3D staining. Samples were immersed overnight in PBSGT (lx PBS implemented with 0.2% gelatin (Sigma), 0.5% Triton X-100 (Sigma) and 0.01% thimerosal (Sigma)) at room temperature and incubated with primary antibodies diluted in PBSGT for three days at room temperature. The tissues were then washed three times with PBSGT for at least 30 min each time and incubated with secondary antibodies diluted in PBSGT for one day. Finally, tissues were rinsed three times with PBSGT and stored in PBS at 4° C. until imaging. 3D whole mount imaging was conducted with a Leica SP8 multi-photon microscope.
Primary and secondary antibodies applied in 3D staining: αSMA (ab21027, Abcam), Ki 67 (ab16667, Abcam), Cleaved Caspase-3 (9661S, Cell signalling), Gli1 (ab49314, Abcam), Donkey anti rabbit AF647 (A-31573, Life Technologies), Donkey anti goat AF647 (A-21447, Life Technologies).
To better understand the molecular basis of reticulations that leads to scarring, the Inventors took a closer look at the molecular targets of the ‘hit’ chemicals. […] Thiostrepton reduces the binding activity of the transcriptional factor FoxM1; a positive regulator of Gli1 signaling (REF). Whereas Itraconazole inhibits Gli nuclear activity through stopping SMO moving to the membrane of primary cilia and thus inhibiting the pathway (James et al., 2010). […] The 3rd anti-scar drug Fluvastatin inhibits 3-Hydroxy-3-methylglutaryl-coenzyme A (HMG-CoA) reductase, a rate-limiting enzyme in cholesterol biogenesis that is required for hedgehog pathway activation (Huang P et al., 2016; Giovanni Luchetti et al., 2016). […] Thus, the Inventors conclude that anti-fibrosis chemicals converge on SHH pathway signaling to modulate fibroblast sprouting and reticulations, needed to mobilize fascia jelly into sites of injury.
The hedgehog pathway was also reported to induce proliferation and to depress apoptosis.

skin-fascia explants = experiment: Scar-in-a-dish (SCAD) ex vivo skin-fascia explant assay, screening of Prestwick chemical library; type: cell-based, mouse; conditions: molecules of table 1 named as inhibitors of ECM movement
Source text: Post born Day 0 (P0) neonates of C57BL/6J wild type mouse were first sacrificed by decapitation. Then dorsal back skin was isolated to make 2 mm full thickness biopsies (0 2 mm, Stiefel) that included the epidermis, dermis and deep subcutaneous fascia layers. The whole skin tissue explant system is termed as scar-in-a-dish (SCAD) assay (Patent Application no. PLA17A13). The SCAD tissue was maintained in DMEM/F12 cell culture medium (Life Technologies) supplemented with 10% FBS (Life Technologies), 1% non-essential amino acid (Thermo Fisher), 1% Glutamax (Thermo Fisher), 1% penicillin and streptomycin (Thermo Fisher) in a 37° C. incubator supplied with […] and 5% CO2. Medium was changed every other day until day 5 when SCADs were collected and fixed for histology analysis. To be noticed, the excised skin was submerged […] in culture media, which confined the scar-prone fibroblasts to the explant and discouraged their adherence to the tissue culture plate.
The PCL provides an additional advantage as all chemicals are of stable physicochemical properties, show a high range of chemical diversity, and are with known bioavailability and safety data in humans. All these information helps to reduce the probability of screening low-quality hits and save the costs of preliminary screening process.
In order to accommodate to medium scale screening approach, the Inventors adapted the SCAD explant system into 96-well plate (Falcon) formats, with each well contained one biopsy. […] Plate and liquid handling were performed using a high-throughput screening platform system composed of a Sciclone G3 Liquid Handler from PerkinElmer (Waltham, Mass., USA). On Day 0 tissues were treated either with the respective compound (1 mM stock solution) dissolved in 100% dimethyl sulfoxide (DMSO, Carl Roth) or DMSO alone. 0.5 μl of compounds/DMSO were transferred with a 96-array head to 200 μl DMEM/F12 medium per well to keep the final DMSO concentrations at […]. Tissues were then incubated (37° C.; 5% CO2) for 72 h prior to a second round of compound treatment, which was performed by exchanging cell culture medium per well and transferring […] of compounds/DMSO into the fresh medium. After an incubation time of another 48 h (37° C.; 5% CO2) the tissues were harvested and fixed for histological processing and imaging.
Briefly, the Inventors excised 2-mm full thickness skin biopsies that included epidermis, dermis, and deep subcutaneous fascia layers from mouse backs (see Methods). Skin-fascia explants were submerged fascia-side up in culture media, to confine scar-prone fibroblasts to the explant and discourage their adherence to the tissue culture plate.
The Prestwick library has selected a diverse array of chemicals with strong physicochemical properties, with known bioavailability and clinical safety data. The library is an ideal place to start screening as it covers all major therapeutic chemical classes such as central nervous system, cardiovascular system, metabolism, and infectious diseases.

[6] = inhibitors 10 μM i.p. 2 hours before surgery, organs harvested after 24 h, FITC in wound lysates

With `O=C(O)C1(c2ccc3c(c2)OC[C@H](Cc2ccc(-c4ccccc4)cc2)[C@H]3O)CCCC1` [CP-105696] the “effect on ECM movement towards the site of injury (phenotype)” value (from here on “effect on ECM movement towards the site”) (liver tissue) was “anti-fibrotic phenotype”.
In the case of `CC(=N)NCc1cccc(CN)c1` [Prestw 1400W, 1400W], the “effect on ECM movement towards the site” value (liver tissue) is reported as “anti-fibrotic phenotypes” and the “effect on ECM movement towards the site” value (liver tissue; listed as W1400) is reported as “inhibit ECM movement”.
With `CN(C(=O)c1cc2ccccc2cc1C(=O)C(c1cccc2ccccc12)P(=O)(O)O)C1CCN(C(=O)c2ccccc2)CC1` (stereo not shown) [Cath-G inhibitor] the “effect on ECM movement towards the site” value (liver tissue) was “anti-fibrotic phenotypes”, the “effect on ECM movement towards the site” value (liver tissue; listed as cathepsin G inhibitors) was “inhibit ECM movement” and the “ECM (matrix) movement, liver” value (liver; [6]) was “decreased”.
For `COC(=O)[C@@H](N)CCCNC(=N)N[N+](=O)[O-]` [L-Name], the “effect on ECM movement towards the site” value (liver tissue) was “anti-fibrotic phenotype”.
With `CCc1cc(C(C)=O)c(O)cc1OCCCCCC(C)(C)c1nn[nH]n1` [LY255283] the “effect on ECM movement towards the site” value (liver tissue) was “anti-fibrotic phenotypes; also recorded: inhibit ECM movement”.
`COC(=O)c1ccc2c(c1)NC(=O)/C2=C(\Nc1ccc(N(C)C(=O)CN2CCN(C)CC2)cc1)c1ccccc1` [Nintedanib] was tested, and the “inward translocations (movements) of fluid matrix” value ([1]; Nintedanib 10 μM i.p. 1 hour before bleomycin and repeatedly, 14 days) was “completely abrogated”, the “activation of lung interstitial fibroblasts into myofibroblasts” value ([1]; two weeks after bleomycin) was “refrained from activating into pathologic YAP/TAZ-positive myofibroblasts” and the “matrix on lung surfaces (pleural matrix pools): structures and fluorescence intensity” value ([1]; two weeks after bleomycin) was “maintained the same structures and fluorescence intensity; also recorded: rescues pleural matrix pools”. For the same molecule, the “fibrotic developments along lung airways and bronchioles” value ([1]; two weeks after bleomycin, histology) was “very minimal signs of fibrotic developments”.
In the case of `O=c1c(O)c(-c2ccc(O)c(O)c2)oc2cc(O)cc(O)c12` [Quercetin], the “ECM (matrix) movement, peritoneum” value (peritoneum) is reported as “decreased” and the “ECM (matrix) movement, liver” value (liver; [6]) is reported as “decreased”.
For `CC(C)C[C@H](NC(=O)N[C@H](C(=O)N[C@@H](CCC(N)=O)C(=O)N[C@@H](C)C=O)[C@@H]1CCNC(=N)N1)C(=O)O` [Elastatinal], the “ECM (matrix) movement, peritoneum” value (peritoneum) was “increased”, the “effect on ECM movement towards the site” value (liver tissue; listed as Elastial) was “pro-fibrotic phenotype” and the “effect on ECM movement towards the site” value (liver tissue; listed as elastial) was “promote ECM movement”. For the same molecule, the “ECM (matrix) movement, liver” value (liver; [6]) was “increased”.
For `COC(=O)Nc1nc2ccc(Sc3ccccc3)cc2[nH]1` [Fenbendazole], the “toxic effects to fascia tissues” value (fascia fibroblasts [2]) was “toxic effects”.
In the case of `C=C(NC(=O)C(=C)NC(=O)c1csc(C2=N[C@@H]3c4csc(n4)[C@H]4NC(=O)c5csc(n5)[C@H]([C@](C)(O)[C@@H](C)O)NC(=O)[C@H]5CSC(=N5)/C(=C/C)NC(=O)[C@H]([C@@H](C)O)NC(=O)c5csc(n5)[C@]3(CC2)NC(=O)[C@H](C)NC(=O)C(=C)NC(=O)[C@H](C)NC(=O)[C@H]([C@@H](C)CC)N[C@@H]2C=Cc3c([C@H](C)O)cc(nc3[C@H]2O)C(=O)O[C@@H]4C)n1)C(N)=O` [Thiostrepton], the “scar size / scarring of wounds” value [3] is reported as “reduced scaring of wounds”, the “fascia (matrix jelly) mobilization into wounds” value [4] is reported as “reduced fascia jelly movements; also recorded: inhibited” and the “cell death (caspase 3)” value (fascia fibroblasts [5]) is reported as “increased”. The “cell proliferation activity (Ki67)” value (fascia fibroblasts [5]) was “decreased”, the “phenotype as inhibitor of ECM movement” value (skin-fascia explants) was “anti-fibrotic phenotype” and the “inter-cell connectivity, sprouting and reticulations within the fascia” value (fascia fibroblasts [2]) was “completely inhibited sprouting and reticulations”.
With `COC(=O)CCC(=O)N[C@@H](C)C(=O)N[C@@H](C)C(=O)N1CCC[C@H]1C(=O)N[C@@H](C)C(=O)CCl` [elastase inhibitor II] (HELM PEPTIDE1{[COC(=O)CCC(=O)[*:2]].A.A.P.A.[ClC[*:1]]}$$$$V2.0) the “ECM (matrix) movement, peritoneum” value (peritoneum) was “increased” and the “ECM (matrix) movement, liver” value (liver; [6]) was “increased”.
In the case of `CNC(=O)[C@H](Cc1c[nH]c2ccccc12)NC(=O)[C@@H](CC(=O)NO)CC(C)C` [GM6001], the “ECM (matrix) movement, peritoneum” value (peritoneum) is reported as “decreased”, the “effect on ECM movement towards the site” value (liver tissue) is reported as “anti-fibrotic phenotypes; also recorded: inhibit ECM movement” and the “potency among the protease inhibitors on matrix currents” value (liver; livers and peritoneas) is reported as “most potent”. The “ECM (matrix) movement, liver” value (liver; mouse, in vivo, ip) was “decreased”.
